Laboratory results as given in patent US11970498B2, “CDK2 inhibitors” (BLUEPRINT MEDICINES CORPORATION, priority 2021, dated 2024).

Legend:
CDK2/Cyclin E = CDK2/Cyclin E (Homo sapiens, UniProt P24941); test: CDK2/Cyclin E biochemical phosphorylation assay (Caliper mobility shift); conditions: apparent IC50; 1.0 mM ATP or ATP Km; 1.25 nM enzyme; 25° C.; read-out: CDK2/cyclin E1 IC50
Method in brief: (§1)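 7.5 µM 5-FAM-QSPKKG-CONH2 peptide phosphorylated by CDK2/Cyclin E (1.25 nM) or GST-CDK1/Cyclin B1 (1.5 nM) at 1.0 mM ATP or ATP Km, in HEPES pH 7.5, MgCl2, Brij-35, DTT, 1% DMSO, 25 °C to 10–20% conversion. EDTA stop; Caliper mobility-shift readout; apparent IC50 from percent activity vs log concentration.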

CDK1/Cyclin B1, GST-tag = molecular target: T1, CDK1/Cyclin B1, GST-tag (Homo sapiens, UniProt P06493); test: CDK1/Cyclin B1 biochemical phosphorylation assay (Caliper mobility shift); conditions: apparent IC50; 1.0 mM ATP or ATP Km; 1.5 nM enzyme; 25° C.
T1 construct: GST
T1 sequence (P06493 whole entry): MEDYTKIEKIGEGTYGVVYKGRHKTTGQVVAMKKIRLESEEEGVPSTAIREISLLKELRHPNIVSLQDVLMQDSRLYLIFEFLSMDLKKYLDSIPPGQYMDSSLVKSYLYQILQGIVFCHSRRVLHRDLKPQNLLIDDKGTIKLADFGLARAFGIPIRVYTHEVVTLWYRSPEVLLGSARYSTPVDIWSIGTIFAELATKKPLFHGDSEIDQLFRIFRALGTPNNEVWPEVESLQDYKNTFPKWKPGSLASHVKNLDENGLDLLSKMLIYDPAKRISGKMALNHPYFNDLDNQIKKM
T1 sequence (P14635 whole entry partner): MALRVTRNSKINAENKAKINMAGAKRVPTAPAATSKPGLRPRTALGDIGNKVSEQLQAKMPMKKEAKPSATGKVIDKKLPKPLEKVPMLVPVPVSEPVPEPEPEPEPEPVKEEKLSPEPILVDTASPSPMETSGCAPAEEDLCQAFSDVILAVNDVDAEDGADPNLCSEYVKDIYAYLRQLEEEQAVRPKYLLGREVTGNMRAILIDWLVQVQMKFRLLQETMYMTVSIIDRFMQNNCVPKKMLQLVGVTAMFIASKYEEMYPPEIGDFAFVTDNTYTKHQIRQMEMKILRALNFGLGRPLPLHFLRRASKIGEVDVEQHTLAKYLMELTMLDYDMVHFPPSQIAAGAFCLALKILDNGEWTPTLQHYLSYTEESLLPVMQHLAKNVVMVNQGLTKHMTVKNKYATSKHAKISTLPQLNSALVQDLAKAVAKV
Method in brief: as §1

Compound | IC50 (CDK2/Cyclin E) [µM] | IC50 (CDK1/Cyclin B1, GST-tag) [µM]
C[C@@H](c1ncccc1F)n1ncc2ncc(Nc3cc(OC(F)F)[nH]n3)nc21 [Example 50, (S)-N-(5-(difluoromethoxy)-1H-pyrazol-3-yl)-1-(1-(3-fluoropyridin-2-yl)ethyl)-1H-pyrazolo[3,4-b]pyrazin-6-amine] | ≤ 0.01 | ≥ 0.5
FC(F)Oc1cc(Nc2cnc3cnn(Cc4cscn4)c3n2)n[nH]1 [Example 52, N-(5-(difluoromethoxy)-1H-pyrazol-3-yl)-1-(thiazol-4-ylmethyl)-1H-pyrazolo[3,4-b]pyrazin-6-amine] | 0.03 to 0.1 | ≥ 0.5
FC(F)Oc1cc(Nc2cnc3cnn(Cc4cncs4)c3n2)n[nH]1 [Example 53, N-(5-(difluoromethoxy)-1H-pyrazol-3-yl)-1-(thiazol-5-ylmethyl)-1H-pyrazolo[3,4-b]pyrazin-6-amine] | ≤ 0.01 | ≥ 0.5
FC(F)Oc1cc(Nc2cnc3cnn(Cc4nccs4)c3n2)n[nH]1 [Example 54, N-(5-(difluoromethoxy)-1H-pyrazol-3-yl)-1-(thiazol-2-ylmethyl)-1H-pyrazolo[3,4-b]pyrazin-6-amine] | 0.03 to 0.1 | ≥ 0.5
C[C@@H](c1cncs1)n1ncc2ncc(Nc3cc(OC(F)F)[nH]n3)nc21 [Example 58, (S)-N-(5-(difluoromethoxy)-1H-pyrazol-3-yl)-1-(1-(thiazol-5-yl)ethyl)-1H-pyrazolo[3,4-b]pyrazin-6-amine] | ≤ 0.01 | ≥ 0.5
COc1ncccc1[C@H](C)n1ncc2ncc(Nc3cc(OC(F)F)[nH]n3)nc21 [Example 59, (S)-N-(5-(difluoromethoxy)-1H-pyrazol-3-yl)-1-(1-(2-methoxypyridin-3-yl)ethyl)-1H-pyrazolo[3,4-b]pyrazin-6-amine] | ≤ 0.01 | ≥ 0.5
C[C@@H](c1cccnc1Cl)n1ncc2ncc(Nc3cc(OC(F)F)[nH]n3)nc21 [Example 60, (S)-1-(1-(2-chloropyridin-3-yl)ethyl)-N-(5-(difluoromethoxy)-1H-pyrazol-3-yl)-1H-pyrazolo[3,4-b]pyrazin-6-amine] | ≤ 0.01 | ≥ 0.5
C[C@@H](c1cccnc1)n1nc(Cl)c2ncc(Nc3cc(OC(F)F)[nH]n3)nc21 [Example 61, (S)-3-chloro-N-(5-(difluoromethoxy)-1H-pyrazol-3-yl)-1-(1-(pyridin-3-yl)ethyl)-1H-pyrazolo[3,4-b]pyrazin-6-amine] | ≤ 0.01 | ≥ 0.5
COc1cc(Nc2cnc3cnn(C[C@H]4C[C@@H](C)O[C@@H](C)C4)c3n2)n[nH]1 [Example 66, 1-(((2R,4r,6S)-2,6-dimethyltetrahydro-2H-pyran-4-yl)methyl)-N-(5-methoxy-1H-pyrazol-3-yl)-1H-pyrazolo[3,4-b]pyrazin-6-amine] | ≤ 0.01 | < 0.1
COc1cc(Nc2cnc3cnn([C@@H](C)c4cccnc4)c3n2)n[nH]1 [Example 67, (S)-N-(5-methoxy-1H-pyrazol-3-yl)-1-(1-(pyridin-3-yl)ethyl)-1H-pyrazolo[3,4-b]pyrazin-6-amine] | ≤ 0.01 | ≥ 0.5
COc1cc(Nc2cnc3cnn([C@@H](C)C4CC4)c3n2)n[nH]1 [Example 68, (S)-1-(1-cyclopropylethyl)-N-(5-methoxy-1H-pyrazol-3-yl)-1H-pyrazolo[3,4-b]pyrazin-6-amine] | 0.01 to 0.02 | ≥ 0.5
COc1cc(Nc2cnc3cnn(CC4CC4)c3n2)n[nH]1 [Example 69, 1-(cyclopropylmethyl)-N-(5-methoxy-1H-pyrazol-3-yl)-1H-pyrazolo[3,4-b]pyrazin-6-amine] | 0.03 to 0.1 | ≥ 0.5
COc1cc(Nc2cnc3cnn([C@@H](C)C4COC4)c3n2)n[nH]1 [Example 71, (S)-N-(5-methoxy-1H-pyrazol-3-yl)-1-(1-(oxetan-3-yl)ethyl)-1H-pyrazolo[3,4-b]pyrazin-6-amine] | 0.01 to 0.02 | ≥ 0.5
C[C@@H](C1COC1)n1ncc2ncc(Nc3cc(OC(F)F)[nH]n3)nc21 [Example 72, (S)-N-(5-(difluoromethoxy)-1H-pyrazol-3-yl)-1-(1-(oxetan-3-yl)ethyl)-1H-pyrazolo[3,4-b]pyrazin-6-amine] | ≤ 0.01 | ≥ 0.5

Next, values leading:

IC50 (CDK2/Cyclin E) [µM] | IC50 (CDK1/Cyclin B1, GST-tag) [µM] | Compound
≤ 0.01 | 0.1 to 0.5 | OC1(Cn2ncc3ncc(Nc4cc(OC(F)F)[nH]n4)nc32)CCOCC1 [Example 49, 4-((6-((5-(difluoromethoxy)-1H-pyrazol-3-yl)amino)-1H-pyrazolo[3,4-b]pyrazin-1-yl)methyl)tetrahydro-2H-pyran-4-ol]
≤ 0.01 | 0.1 to 0.5 | C[C@@H](C1CC1)n1ncc2ncc(Nc3cc(OC(F)F)[nH]n3)nc21 [Example 51, (S)-1-(1-cyclopropylethyl)-N-(5-(difluoromethoxy)-1H-pyrazol-3-yl)-1H-pyrazolo[3,4-b]pyrazin-6-amine]
≤ 0.01 | ≥ 0.5 | C[C@H](C1CC1)n1ncc2ncc(Nc3cc(OC(F)F)[nH]n3)nc21 [Example 55, (R)-1-(1-cyclopropylethyl)-N-(5-(difluoromethoxy)-1H-pyrazol-3-yl)-1H-pyrazolo[3,4-b]pyrazin-6-amine]
0.01 to 0.02 | ≥ 0.5 | FC(F)Oc1cc(Nc2cnc3c(Cl)nn(CC4CCOCC4)c3n2)n[nH]1 [Example 56, 3-chloro-N-(5-(difluoromethoxy)-1H-pyrazol-3-yl)-1-((tetrahydro-2H-pyran-4-yl)methyl)-1H-pyrazolo[3,4-b]pyrazin-6-amine]
0.03 to 0.1 | ≥ 0.5 | O[C@H]1CC[C@@H](n2ncc3ncc(Nc4cc(OC(F)F)[nH]n4)nc32)CC1 [Example 57, (1s,4s)-4-(6-((5-(difluoromethoxy)-1Hpyrazol-3-yl)amino)-1Hpyrazolo[3,4-b]pyrazin-1-yl)cyclohexan-1-ol]
≤ 0.01 | ≥ 0.5 | N#Cc1nn(CC2CCOCC2)c2nc(Nc3cc(OC(F)F)[nH]n3)cnc12 [Example 62, 6-((5-(difluoromethoxy)-1H-pyrazol-3-yl)amino)-1-((tetrahydro-2H-pyran-4-yl)methyl)-1H-pyrazolo[3,4-b]pyrazine-3-carbonitrile]
≤ 0.01 | 0.1 to 0.5 | C[C@@H](c1cccnc1F)n1nc(C#N)c2ncc(Nc3cc(OC(F)F)[nH]n3)nc21 [Example 63, (S)-6-((5-(difluoromethoxy)-1H-pyrazol-3-yl)amino)-1-(1-(2-fluoropyridin-3-yl)ethyl)-1H-pyrazolo[3,4-b]pyrazine-3-carbonitrile]
0.02 to 0.03 | ≥ 0.5 | C[C@@H](C1CCOCC1)n1nc(C#N)c2ncc(Nc3cc(OC(F)F)[nH]n3)nc21 [Example 64, (S)-6-((5-(difluoromethoxy)-1H-pyrazol-3-yl)amino)-1-(1-(tetrahydro-2H-pyran-4-yl)ethyl)-1H-pyrazolo[3,4-b]pyrazine-3-carbonitrile]
≤ 0.01 | < 0.1 | C[C@@H]1C[C@H](Cn2ncc3ncc(Nc4cc(OC(F)F)[nH]n4)nc32)C[C@H](C)O1 [Example 65, N-(5-(difluoromethoxy)-1H-pyrazol-3-yl)-1-(((2R,4r,6S)-2,6-dimethyltetrahydro-2Hpyran-4-yl)methyl)-1Hpyrazolo[3,4-b]pyrazin-6-amine]
≤ 0.01 | 0.1 to 0.5 | COc1cc(Nc2cnc3cnn(C[C@H]4CCOC4)c3n2)n[nH]1 [Example 70, (R)-N-(5-methoxy-1H-pyrazol-3-yl)-1-((tetrahydrofuran-3-yl)methyl)-1H-pyrazolo[3,4-b]pyrazin-6-amine]
